Measured values as given in patent US20090076062A1, “Organic Compounds” (priority 2007, published 2009).

Target: T1, Recombinant human renin (Homo sapiens, UniProt P00797)
T1 construct: made in house; host or cells: Chinese Hamster Ovary cells
T1 sequence (P00797 67-406): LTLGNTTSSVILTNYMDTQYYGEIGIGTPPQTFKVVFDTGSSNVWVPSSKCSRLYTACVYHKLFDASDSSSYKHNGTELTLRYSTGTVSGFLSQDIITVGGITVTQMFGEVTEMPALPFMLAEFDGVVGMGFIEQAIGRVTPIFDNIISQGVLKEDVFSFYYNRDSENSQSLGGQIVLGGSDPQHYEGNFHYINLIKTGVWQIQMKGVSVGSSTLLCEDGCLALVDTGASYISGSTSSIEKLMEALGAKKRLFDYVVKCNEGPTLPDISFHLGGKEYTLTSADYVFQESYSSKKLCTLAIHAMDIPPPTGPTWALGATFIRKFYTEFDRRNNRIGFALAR
Assay: Renin inhibitory activity in vitro, hu-renin FRET assay
Type: biochemical
Procedure: Recombinant human renin (expressed in Chinese Hamster Ovary cells and purified using standard methods) at 4 nM concentration is incubated with test compound at various concentrations for 1 h at RT in 0.1 M Tris-HCl buffer, pH 7.4, containing 0.05 M NaCl, 0.5 mM EDTA and 0.05% CHAPS. Synthetic peptide substrate Arg-Glu(EDANS)-Ile-His-Pro-Phe-His-Leu-Val-Ile_His_Thr-Lys(DABCYL)-Arg9 is added to a final concentration of 2 μM and increase in fluorescence is recorded at an excitation wave-length of 340 nm and at an emission wave-length of 485 nm in a microplate spectro-fluorimeter. IC50 values are calculated from percentage of inhibition of renin activity as a function of test compound concentration (Fluorescence Resonance Energy Transfer, FRET, assay). Recombinant human renin (expressed in Chinese Hamster Ovary cells and purified using standard methods) at 1 nM concentration is incubated with test compound at various concentrations for 1.5 h at 37° C. in 0.1 M Tris/HCl pH 7.4 containing 0.05 M NaCl, 0.5 mM EDTA and 0.025% (w/v) CHAPS. Synthetic peptide substrate Ac-Ile-His-Pro-Phe-His-Leu-Val-Ile-His-Asn-Lys-[DY-505-X5] is added to a final concentration of 5 μM. The enzyme reaction is stopped by adding 6 μL of 1.0% TFA. The product of the reaction is separated by HPLC and quantified by spectrophotometric measurement at […] wave-length. IC50 values are calculated from percentage of inhibition of renin activity as a function of test compound concentration.
Renin inhibitory activity was assessed in vitro by FRET assay (as above described). Results for representative compounds of formula I are: […]

| SMILES | IC50 |
| --- | --- |
| COCCCOc1cc(C[C@@H](C[C@H](N)[C@@H](O)C[C@H](C(=O)NCC2CCOCC2)C(C)C)C(C)C)ccc1OC [Example 14, (2S,4S,5S,7S)-5-Amino-4-hydroxy-2-isopropyl-7-[4-methoxy-3-(3-methoxy-propoxy)-benzyl]-8-methyl-nonanoic acid (tetrahydro-pyran-4-ylmethyl)-amide] | 1.4 nM |
| COCCCOc1cc(C[C@@H](C[C@H](N)[C@@H](O)C[C@H](C(=O)NC2CCCOC2)C(C)C)C(C)C)ccc1OC (single isomer, unassigned) [Example 22, (2S,4S,5S,7S)-5-Amino-4-hydroxy-2-isopropyl-7-[4-methoxy-3-(3-methoxy-propoxy)-benzyl]-8-methyl-nonanoic acid [(R)- or (S)-3-(tetrahydro-pyran-3-yl)]-amide] | 2.5 nM |
| COCCCCc1cc(C[C@@H](C[C@H](N)[C@@H](O)C[C@H](C(=O)NC2CCOCC2)C(C)C)C(C)C)ccc1OC [Example 36, (2S,4S,5S,7S)-5-Amino-4-hydroxy-2-isopropyl-7-[4-methoxy-3-(4-methoxy-butyl)-benzyl]-8-methyl-nonanoic acid (tetrahydro-pyran-4-yl)-amide] | 0.3 nM |
| COCCCOc1cc(C[C@@H](C[C@H](N)[C@@H](O)C[C@H](C(=O)NC2CCOCC2)C(C)C)C(C)C)ccc1OC [Example 1, (2S,4S,5S,7S)-5-Amino-4-hydroxy-2-isopropyl-7-[4-methoxy-3-(3-methoxy-propoxy)-benzyl]-8-methyl-nonanoic acid (tetrahydro-pyran-4-yl)-amide] | 1.4 nM |
| COCCCOc1cc(C[C@@H](C[C@H](N)[C@@H](O)C[C@H](C(=O)NC2CCOCC2)C(C)C)C(C)C)ccc1C [Example 26, (2S,4S,5S,7S)-5-Amino-4-hydroxy-2-isopropyl-7-[3-(3-methoxy-propoxy)-4-methyl-benzyl]-8-methyl-nonanoic acid (tetrahydro-pyran-4-yl)-amide] | 0.5 nM |
| COCCCOc1cc(C[C@@H](C[C@H](N)[C@@H](O)C[C@H](C(=O)N[C@H]2CCN(C)C2)C(C)C)C(C)C)ccc1OC [Example 3, (2S,4S,5S,7S)-5-Amino-4-hydroxy-2-isopropyl-7-[4-methoxy-3-(3-methoxy-propoxy)-benzyl]-8-methyl-nonanoic acid ((S)-1-methyl-pyrrolidin-3-yl)-amide] | 0.7 nM |
| COCCCOc1cc(C[C@@H](C[C@H](N)[C@@H](O)C[C@H](C(=O)N[C@@H]2CCOC2)C(C)C)C(C)C)ccc1OC [Example 12, (2S,4S,5S,7S)-5-Amino-4-hydroxy-2-isopropyl-7-[4-methoxy-3-(3-methoxy-propoxy)-benzyl]-8-methyl-nonanoic acid ((R)-tetrahydrofuran-3-yl)-amide] | 0.7 nM |
| COCCCOc1cc(C[C@@H](C[C@H](N)[C@@H](O)C[C@H](C(=O)NC[C@H]2CCCO2)C(C)C)C(C)C)ccc1C [Example 27, (2S,4S,5S,7S)-5-Amino-4-hydroxy-2-isopropyl-7-[3-(3-methoxy-propoxy)-4-methyl-benzyl]-8-methyl-nonanoic acid [(R)-1-(tetrahydro-furan-2-yl)methyl]-amide] | 0.5 nM |
| COCCCOc1cc(C[C@@H](C[C@H](N)[C@@H](O)C[C@H](C(=O)N[C@H]2CCOC2)C(C)C)C(C)C)ccc1OC [Example 13, (2S,4S,5S,7S)-5-Amino-4-hydroxy-2-isopropyl-7-[4-methoxy-3-(3-methoxy-propoxy)-benzyl]-8-methyl-nonanoic acid ((S)-tetrahydrofuran-3-yl)-amide] | 0.2 nM |
| COCCCOc1cc(C[C@@H](C[C@H](N)[C@@H](O)C[C@H](C(=O)NCC2CCOC2)C(C)C)C(C)C)ccc1OC (single isomer, unassigned) [Example 29, (2S,4S,5S,7S)-5-Amino-4-hydroxy-2-isopropyl-7-[4-methoxy-3-(3-methoxy-propoxy)-benzyl]-8-methyl-nonanoic acid [3(R) or 3(S)-1-(tetrahydro-furan-3-yl)methyl]-amide] | 0.4 nM |
| COCCCOc1cc(C[C@@H](C[C@H](N)[C@@H](O)C[C@H](C(=O)NC[C@@H]2CCCO2)C(C)C)C(C)C)ccc1C [Example 28, (2S,4S,5S,7S)-5-Amino-4-hydroxy-2-isopropyl-7-[3-(3-methoxy-propoxy)-4-methyl-benzyl]-8-methyl-nonanoic acid [(S)-1-(tetrahydro-furan-2-yl)methyl]-amide] | 0.6 nM |

More lines, in order of falling IC50, values ahead:

| IC50 | SMILES |
| --- | --- |
| 8 nM | COCCCOc1cc(C[C@@H](C[C@H](N)[C@@H](O)C[C@H](C(=O)NCC2CCCCO2)C(C)C)C(C)C)ccc1OC (single isomer, unassigned) [Example 19, (2S,4S,5S,7S)-5-Amino-4-hydroxy-2-isopropyl-7-[4-methoxy-3-(3-methoxy-propoxy)-benzyl]-8-methyl-nonanoic acid [2(R) or 2(S)-1-(tetrahydro-pyran-2-yl)methyl]-amide] |
| 7 nM | COCCCOc1cc(C[C@@H](C[C@H](N)[C@@H](O)C[C@H](C(=O)NCC2CCCCO2)C(C)C)C(C)C)ccc1OC (single isomer, unassigned) [Example 20, (2S,4S,5S,7S)-5-Amino-4-hydroxy-2-isopropyl-7-[4-methoxy-3-(3-methoxy-propoxy)-benzyl]-8-methyl-nonanoic acid [(R)- or (S)-1-(tetrahydro-pyran-2-yl)methyl]-amide] |
| 4 nM | COCCCOc1cc(C[C@@H](C[C@H](N)[C@@H](O)C[C@H](C(=O)N[C@@H]2CCN(C)C2)C(C)C)C(C)C)ccc1OC [Example 2, (2S,4S,5S,7S)-5-Amino-4-hydroxy-2-isopropyl-7-[4-methoxy-3-(3-methoxy-propoxy)-benzyl]-8-methyl-nonanoic acid ((R)-1-methyl-pyrrolidin-3-yl)-amide] |
| 4 nM | COCCCOc1cc(C[C@@H](C[C@H](N)[C@@H](O)C[C@H](C(=O)NC[C@H]2CCCO2)C(C)C)C(C)C)ccc1OC [Example 11, (2S,4S,5S,7S)-5-Amino-4-hydroxy-2-isopropyl-7-[4-methoxy-3-(3-methoxy-propoxy)-benzyl]-8-methyl-nonanoic acid [(R)-1-(tetrahydro-furan-2-yl)methyl]-amide] |
| 3.5 nM | COCCCOc1cc(C[C@@H](C[C@H](N)[C@@H](O)C[C@H](C(=O)NC[C@@H]2CCCO2)C(C)C)C(C)C)ccc1OC [Example 10, (2S,4S,5S,7S)-5-Amino-4-hydroxy-2-isopropyl-7-[4-methoxy-3-(3-methoxy-propoxy)-benzyl]-8-methyl-nonanoic acid [(S)-1-(tetrahydro-furan-2-yl)methyl]-amide] |
| 3.2 nM | COCCCOc1cc(C[C@@H](C[C@H](N)[C@@H](O)C[C@H](C(=O)NC2CCN(C)CC2)C(C)C)C(C)C)ccc1OC [Example 5, (2S,4S,5S,7S)-5-Amino-4-hydroxy-2-isopropyl-7-[4-methoxy-3-(3-methoxy-propoxy)-benzyl]-8-methyl-nonanoic acid (1-methyl-piperidin-4-yl)-amide] |
| 2.5 nM | COCCCOc1cc(C[C@@H](C[C@H](N)[C@@H](O)C[C@H](C(=O)NCc2ccoc2)C(C)C)C(C)C)ccc1OC [Example 17, (2S,4S,5S,7S)-5-Amino-4-hydroxy-2-isopropyl-7-[4-methoxy-3-(3-methoxy-propoxy)-benzyl]-8-methyl-nonanoic acid (furan-3-ylmethyl)-amide] |
| 0.9 nM | COCCCOc1cc(C[C@@H](C[C@H](N)[C@@H](O)C[C@H](C(=O)NCc2ccco2)C(C)C)C(C)C)ccc1OC [Example 18, (2S,4S,5S,7S)-5-Amino-4-hydroxy-2-isopropyl-7-[4-methoxy-3-(3-methoxy-propoxy)-benzyl]-8-methyl-nonanoic acid (furan-2-ylmethyl)-amide] |
| 0.8 nM | COCCCOc1cc(C[C@@H](C[C@H](N)[C@@H](O)C[C@H](C(=O)NCC2CCOC2)C(C)C)C(C)C)ccc1OC (single isomer, unassigned) [Example 30, (2S,4S,5S,7S)-5-Amino-4-hydroxy-2-isopropyl-7-[4-methoxy-3-(3-methoxy-propoxy)-benzyl]-8-methyl-nonanoic acid [(R) or (S)-1-(tetrahydro-furan-3-yl)methyl]-amide] |
| 0.5 nM | COCCCOc1cc(C[C@@H](C[C@H](N)[C@@H](O)C[C@H](C(=O)NC2CCCOC2)C(C)C)C(C)C)ccc1OC (single isomer, unassigned) [Example 23, (2S,4S,5S,7S)-5-Amino-4-hydroxy-2-isopropyl-7-[4-methoxy-3-(3-methoxy-propoxy)-benzyl]-8-methyl-nonanoic acid [(R)- or (S)-3-(tetrahydro-pyran-3-yl)]-amide] |
